According to patent US20220160842A1, “METHOD OF TREATING INFECTIVE ENDOCARDITIS” (priority 2019, published 2022):
Converted amounts (≈) assume the structure as drawn. Marks after values point to notes of the source that are not given here.

How the values were obtained:
[1] = test system: S. lugdunensis; experiment: MIC by broth microdilution; format: cell-based, Staphylococcus lugdunensis; settings: S. lugdunensis, N=49
Method: (§1) Minimal inhibitory concentrations (MICs) of exebacase against staphylococci were determined by broth microdilution (BMD) using a nonstandard antimicrobial susceptibility testing (AST) medium comprised of cation-adjusted Mueller Hinton broth (caMHB) supplemented with horse serum (Sigma Aldrich) and dithiothreitol (DTT; Sigma Aldrich) to final concentrations of 25% and 0.5 mM, respectively. This medium, referred to as caMHB-HSD, is approved for use in exebacase AST by the Clinical and Laboratory Standards Institute (CLSI) (CLSI. 2017, Jan. 16-17. AST Subcommittee Working Group Meetings and Plenary. AST Meeting Files & Resources, clsi.org/education/microbiology/ast/ast-meeting-files-resources/. Additional supplementation with 2.5% lysed red blood cells (Remel™, ThermoFisher) was included for analyses of streptococcal isolates, as recommended by CLSI. See CLSI, 2015. Methods for Dilution Antimicrobial Susceptibility Tests for Bacteria That Grow Aerobically, 10th Edition. Clinical and Laboratory Standards Institute, Wayne, Pa.
(§2) Daptomycin (Sigma Aldrich) and vancomycin hydrochloride (Sigma Aldrich) were tested following the reference BMD method for each. See CLSI. 2015. Methods for Dilution Antimicrobial Susceptibility Tests for Bacteria That Grow Aerobically, 10th Edition. Clinical and Laboratory Standards Institute, Wayne, Pa.

[2] = test system: S. haemolyticus; experiment: MIC by broth microdilution; format: cell-based, Staphylococcus haemolyticus; settings: S. haemolyticus, N=36
Method: as §1, §2

[3] = test system: S. capitis; experiment: MIC by broth microdilution; format: cell-based, Staphylococcus capitis; settings: S. capitis, N=13
Method: as §1, §2

[4] = test system: S. anginosus; experiment: MIC by broth microdilution; format: cell-based, Streptococcus anginosus; settings: S. anginosus (viridans), N=10
Method: as §1, §2

[5] = test system: S. gordonii; experiment: MIC by broth microdilution; format: cell-based, Streptococcus gordonii; settings: S. gordonii (viridans), N=11
Method: as §1, §2

[6] = test system: S. mitis; experiment: MIC by broth microdilution; format: cell-based, Streptococcus mitis; settings: S. mitis (viridans), N=18
Method: as §1, §2

[7] = test system: S. mutans; experiment: MIC by broth microdilution; format: cell-based, Streptococcus mutans; settings: S. mutans (viridans), N=22
Method: as §1, §2

[8] = test system: S. oralis; experiment: MIC by broth microdilution; format: cell-based, Streptococcus oralis; settings: S. oralis (viridans), N=15
Method: as §1, §2

[9] = test system: S. salivarius; experiment: MIC by broth microdilution; format: cell-based, Streptococcus salivarius; settings: S. salivarius (viridans), N=12
Method: as §1, §2

[10] = test system: S. gallolyticus; experiment: MIC by broth microdilution; format: cell-based, Streptococcus gallolyticus; settings: S. gallolyticus (bovis), N=19
Method: as §1, §2

[11] = test system: S. agalactiae; experiment: MIC by broth microdilution; format: cell-based, Streptococcus agalactiae; settings: S. agalactiae (group B), N=97
Method: as §1, §2

[12] = test system: S. dysgalactiae; experiment: MIC by broth microdilution; format: cell-based, Streptococcus dysgalactiae; settings: S. dysgalactiae (group G), N=22
Method: as §1, §2

[13] = test system: E. faecalis; experiment: MIC by broth microdilution; format: cell-based, Enterococcus faecalis; settings: E. faecalis (formerly group D), N=18
Method: as §1, §2

[14] = test system: MRSA strain MW2; experiment: Infective endocarditis rabbit model, CF-301 in series with daptomycin (Example 2); format: in vivo, rabbits; settings: daptomycin alone 4 mg/kg intravenously
Method: The rational for selection of the daptomycin dose is as follows. Daptomycin pilot dose-response experiments were performed over a range from 1 mg/kg to 10 mg/kg, administered intravenously, once daily for 4 days in the infective endocarditis rabbit model described below, which was caused by the MRSA strain, MW2. FIG. 2 depicts data for individual animals, plotted as treatment regimen versus log10 CFU/g tissue (mean±SEM are shown). From these studies, a daptomycin dose-response was defined. […] In the rabbit infective endocarditis model, a daptomycin-alone dose of 4 mg/kg administered intravenously provided about 0.25 to 1.45 log10 reduction in bacterial burden compared to vehicle-treated controls.
A well-described indwelling transcarotid artery-to-left ventricle catheter-induced model of aortic valve infective endocarditis was used in rabbits. See Xiong et al., 2011, AAC, 55:P5325-5330. At 48 hours after catheter placement, infective endocarditis was induced by intravenous inoculums of about 2×10^5 CFU (the induction of ID95 of MRSA strain MW2 in this model). […] Daptomycin administration was continued once a day for 4 days. At 24 hours after the last dose of daptomycin, animals were humanely euthanized and cardiac vegetations, kidneys, and spleens were sterilely removed and quantitatively cultured. Bacterial density for each organ for the different treatment groups were calculated as mean log10 CFU/g of tissue (±95% confidence interval).

[15] = test system: MRSA strain MW2; experiment: Left-sided catheter-induced IE model due to MRSA, CF-301 dose strategies plus DAP (Example 4); format: in vivo, rabbits
Method: Briefly, female New Zealand White rabbits (Harlan Laboratories; 2.3 to 2.5 kg body weight) underwent transcarotid-transaortic valve catheterization, and IE was induced by IV infection of ˜1-2×10^5 cfu of MW2 at 48 hours (h) after catheterization. […] See also FIG. 4.
On day 5, animals were sacrificed, and target tissues (cardiac vegetations, kidney and spleen) were removed and quantitatively cultured. Tissue MRSA counts are given as the mean log10 CFU/g of tissue±SD).
A two-tailed Student's t test was used to analyze the tissue MRSA counts between different groups. P values <0.05 were considered significant. No adjustment was made for all the P values reported in this study.

In the case of `CCCCCCCCCC(=O)N[C@@H](Cc1c[nH]c2ccccc12)C(=O)N[C@H](CC(N)=O)C(=O)N[C@@H](CC(=O)O)C(=O)N[C@@H]1C(=O)NCC(=O)N[C@@H](CCCN)C(=O)N[C@@H](CC(=O)O)C(=O)N[C@H](C)C(=O)N[C@@H](CC(=O)O)C(=O)NCC(=O)N[C@H](CO)C(=O)N[C@@H]([C@H](C)CC(=O)O)C(=O)N[C@@H](CC(=O)c2ccccc2N)C(=O)O[C@@H]1C` [DAP, Daptomycin], the “MIC Range” value [1] is reported as 0.25 to 2 µg/mL, the MIC50 ([1]; Staphylococcus lugdunensis, read-out: MIC50) is reported as 0.5 µg/mL (≈ 0.309 µM) and the MIC90 ([1]; Staphylococcus lugdunensis, read-out: MIC90) is reported as 1 µg/mL (≈ 0.617 µM). The “MIC Range” value [2] was 0.25 to 2 µg/mL, the MIC50 ([2]; Staphylococcus haemolyticus, read-out: MIC50) was 0.5 µg/mL (≈ 0.309 µM) and the MIC90 ([2]; Staphylococcus haemolyticus, read-out: MIC90) was 1 µg/mL (≈ 0.617 µM). For the same compound, the “MIC Range” value [3] was 0.25 to 1 µg/mL, the MIC50 ([3]; Staphylococcus capitis, read-out: MIC50) was 0.5 µg/mL (≈ 0.309 µM) and the MIC90 ([3]; Staphylococcus capitis, read-out: MIC90) was 1 µg/mL (≈ 0.617 µM). For the same compound, the “MIC Range” value [4] was 0.25 to 0.5 µg/mL, the MIC50 ([4]; Streptococcus anginosus, read-out: MIC50) was 0.5 µg/mL (≈ 0.309 µM) and the MIC90 ([4]; Streptococcus anginosus, read-out: MIC90) was 0.5 µg/mL (≈ 0.309 µM). The “MIC Range” value [5] was 0.25 to 1 µg/mL, the MIC50 ([5]; Streptococcus gordonii, read-out: MIC50) was 0.5 µg/mL (≈ 0.309 µM) and the MIC90 ([5]; Streptococcus gordonii, read-out: MIC90) was 0.5 µg/mL (≈ 0.309 µM). The “MIC Range” value [6] was 0.125 to 1 µg/mL, the MIC50 ([6]; Streptococcus mitis, read-out: MIC50) was 0.5 µg/mL (≈ 0.309 µM) and the MIC90 ([6]; Streptococcus mitis, read-out: MIC90) was 1 µg/mL (≈ 0.617 µM). For the same compound, the “MIC Range” value [7] was 0.25 to 8 µg/mL, the MIC50 ([7]; Streptococcus mutans, read-out: MIC50) was 0.5 µg/mL (≈ 0.309 µM) and the MIC90 ([7]; Streptococcus mutans, read-out: MIC90) was 1 µg/mL (≈ 0.617 µM). For the same compound, the “MIC Range” value [8] was 0.25 to 1 µg/mL, the MIC50 ([8]; Streptococcus oralis, read-out: MIC50) was 0.5 µg/mL (≈ 0.309 µM) and the MIC90 ([8]; Streptococcus oralis, read-out: MIC90) was 0.5 µg/mL (≈ 0.309 µM). The “MIC Range” value [9] was 0.06 to 0.5 µg/mL, the MIC50 ([9]; Streptococcus salivarius, read-out: MIC50) was 0.25 µg/mL (≈ 0.154 µM) and the MIC90 ([9]; Streptococcus salivarius, read-out: MIC90) was 0.5 µg/mL (≈ 0.309 µM). The “MIC Range” value [10] was 0.06 to 0.5 µg/mL, the MIC50 ([10]; Streptococcus gallolyticus, read-out: MIC50) was 0.125 µg/mL (≈ 0.0771 µM) and the MIC90 ([10]; Streptococcus gallolyticus, read-out: MIC90) was 0.25 µg/mL (≈ 0.154 µM). The “MIC Range” value [11] was 0.125 to 0.25 µg/mL, the MIC50 ([11]; Streptococcus agalactiae, read-out: MIC50) was 0.125 µg/mL (≈ 0.0771 µM) and the MIC90 ([11]; Streptococcus agalactiae, read-out: MIC90) was 0.25 µg/mL (≈ 0.154 µM). For the same compound, the “MIC Range” value [12] was 0.06 to 0.5 µg/mL, the MIC50 ([12]; Streptococcus dysgalactiae, read-out: MIC50) was 0.125 µg/mL (≈ 0.0771 µM) and the MIC90 ([12]; Streptococcus dysgalactiae, read-out: MIC90) was 0.25 µg/mL (≈ 0.154 µM). For the same compound, the “MIC Range” value [13] was 0.25 to 0.5 µg/mL, the MIC50 ([13]; Enterococcus faecalis, read-out: MIC50) was 0.5 µg/mL (≈ 0.309 µM) and the MIC90 ([13]; Enterococcus faecalis, read-out: MIC90) was 0.5 µg/mL (≈ 0.309 µM). For the same compound, the “bacterial burden remaining in treated animals” value [14] was 5-7 log10, the “reduction in bacterial burden compared to vehicle-treated controls” value ([14]; once daily for 4 days, pilot dose-response) was 0.25 to 1.45 log10 and the “MRSA density, Mean Log10 CFU/g tissue ± SD, Kidneys” value ([15]; DAP alone 4 mg/kg QD) was 4.62 ± 1.16^a Log10 CFU/g tissue. For the same compound, the “MRSA density, Mean Log10 CFU/g tissue ± SD, Spleen” value ([15]; DAP alone 4 mg/kg QD) was 4.04 ± 0.87^a Log10 CFU/g tissue and the “reduction in MRSA densities in all three target tissues vs vehicle controls” value ([15]; DAP alone 4 mg/kg iv QD x 4 day) was 2-3 log10 cfu/g.
